Data as given in ChEMBL document CHEMBL1201862, “PubChem BioAssay data set” (2004).
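Exposure lasted 48 hours, with cells grown in 96-well plates and compounds tested at five concentrations. GI50: concentration for 50% inhibition of growth.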 Activity calls are given as the source filed them. Rule as the data show it: active = GI50 up to about 1.1 µM and inactive = higher.

Assays:
Test in all cases: NCI anticancer screen, dose series, 48 h
[1] = system: 786-0
[2] = system: CAKI-1
[3] = system: DU-145
[4] = system: HCT-116
[5] = system: HCT-15
[6] = system: Hs-578T
[7] = system: IGROV-1
[8] = system: LOX IMVI
[9] = system: M14
[10] = system: MDA-MB-435
[11] = system: Malme-3M
[12] = system: NCI-H522
[13] = system: OVCAR-3
[14] = system: OVCAR-8
[15] = system: PC-3
[16] = system: RXF 393
[17] = system: SF-295
[18] = system: SNB-19
[19] = system: T47D
[20] = system: UACC-62

Structure (SMILES)	GI50 [1]	GI50 [2]	GI50 [3]	GI50 [4]	GI50 [5]	GI50 [6]	GI50 [7]	GI50 [8]	GI50 [9]	GI50 [10]	GI50 [11]	GI50 [12]	GI50 [13]	GI50 [14]	GI50 [15]	GI50 [16]	GI50 [17]	GI50 [18]	GI50 [19]	GI50 [20]
Fc1ccc(C(OCCN2CCN(CCCCl)CC2)c2ccc(F)cc2)cc1	28.4 µM (inactive)	31 µM (inactive)	28.9 µM (inactive)	19.5 µM (inactive)	17.3 µM	29.9 µM (inactive)	26 µM (inactive)	16.8 µM (inactive)	18.9 µM (inactive)	17.1 µM (inactive)	17 µM (inactive)	18.7 µM (inactive)	25.8 µM (inactive)	27.5 µM (inactive)	34.8 µM (inactive)	23.7 µM (inactive)	22.9 µM (inactive)	37.6 µM (inactive)	22.3 µM (inactive)	19.1 µM (inactive)
COc1ccc(/C=C(\NC(=O)c2ccccc2)C(=O)NN(C)c2ccnc3cc(Cl)ccc23)cc1OC	27.6 µM (inactive)	28.8 µM (inactive)	27.2 µM (inactive)	34.6 µM (inactive)	24.7 µM	52.8 µM (inactive)	17.2 µM (inactive)	18.7 µM (inactive)	22.6 µM (inactive)	21.3 µM (inactive)	26.1 µM (inactive)	21.8 µM (inactive)	27.6 µM (inactive)	23.4 µM (inactive)	27.4 µM (inactive)	18.9 µM (inactive)	36.2 µM (inactive)	41.2 µM (inactive)	30.4 µM (inactive)	
C=C(CN(CC)CC)C1(c2ccccc2)CC2(CCCC2)C(=O)O1 (configuration not stated)	> 100 µM (inactive)	> 100 µM (inactive)	> 100 µM (inactive)	38.3 µM (inactive)	> 100 µM	> 100 µM (inactive)	> 100 µM (inactive)	> 100 µM (inactive)	45.5 µM (inactive)	> 100 µM (inactive)	> 100 µM (inactive)	35 µM (inactive)	82 µM (inactive)	> 100 µM (inactive)	67 µM (inactive)	> 100 µM (inactive)	> 100 µM (inactive)	> 100 µM (inactive)	> 100 µM (inactive)	> 100 µM (inactive)
Nc1nccc(NCC2(CO)CC(CCc3ccccc3)C2)n1 (configuration not stated)	14.6 µM (inactive)	11.8 µM (inactive)	12.4 µM (inactive)	10.8 µM (inactive)	18 µM	19.8 µM (inactive)	13.2 µM (inactive)	14.3 µM (inactive)		13.7 µM (inactive)	13.7 µM (inactive)	11.8 µM (inactive)	12.3 µM (inactive)	18.2 µM (inactive)	15.1 µM (inactive)	15.6 µM (inactive)	10.8 µM (inactive)		6.52 µM (inactive)	12.6 µM (inactive)
NC(=O)NCCSC1CCCCC1O (configuration not stated)	> 100 µM (inactive)	> 100 µM (inactive)	> 100 µM (inactive)	> 100 µM (inactive)	> 100 µM	> 100 µM (inactive)	> 100 µM (inactive)	> 100 µM (inactive)	> 100 µM (inactive)	> 100 µM (inactive)	> 100 µM (inactive)	> 100 µM (inactive)	> 100 µM (inactive)	> 100 µM (inactive)	> 100 µM (inactive)	> 100 µM (inactive)	> 100 µM (inactive)	> 100 µM (inactive)	> 100 µM (inactive)	> 100 µM (inactive)
Nc1nc(-c2ccccc2/N=N/N2CCCC2)nc2ccccc12	2.38 µM (inactive)	4.14 µM (inactive)	4.93 µM (inactive)	1.02 µM (active)	2.7 µM	3.39 µM (inactive)	2.91 µM (inactive)	1.75 µM (inactive)	3.08 µM (inactive)	2.56 µM (inactive)	3.28 µM (inactive)	4.28 µM (inactive)	1.85 µM (inactive)	1.45 µM (inactive)	3.7 µM (inactive)	5.73 µM (inactive)	2.32 µM (inactive)	3.69 µM (inactive)	2.4 µM (inactive)	1.77 µM (inactive)
COC(=O)[C@@H]1Cc2cc(O)c(O)cc2C2(CCN(C)CC2)O1	> 10 µM (inactive)	> 10 µM (inactive)	> 10 µM (inactive)	> 10 µM (inactive)	> 10 µM	> 10 µM (inactive)	> 10 µM (inactive)	> 10 µM (inactive)	> 10 µM (inactive)	> 10 µM (inactive)	> 10 µM (inactive)	> 10 µM (inactive)	> 10 µM (inactive)	> 10 µM (inactive)	> 10 µM (inactive)	> 10 µM (inactive)	> 10 µM (inactive)	> 10 µM (inactive)	> 10 µM (inactive)	> 10 µM (inactive)
